Like-named read-outs stand apart in the source and are kept apart here.
Tests used:
BALB/C mice = details: mouse, in vivo
EGFR = molecular target: T1, EGFR (Homo sapiens, UniProt P00533); assay: Luciferase-coupled chemiluminescence kinase assay; format: biochemical; details: ATP at Km
T1 construct: residues H672-A1210 of human EGFR, Proqinase; purchased Proqinase
Procedure: Dose-response experiments were done using 10 different inhibitor concentrations in 384-well microtiter plates. The ATP concentration used for each assay was equivalent to the Km for each kinase.
A Luciferase-coupled chemiluminescence assay was used to measure EGFR and KDR (VEGFR2) activity. Kinase activity was measured as the percentage of ATP consumed following the kinase reaction using luciferase-luciferin-coupled chemiluminescence. Reactions were conducted in 384-well white, medium-binding microtiter plates (Greiner). […] The reaction mixture was incubated at room temperature for 4 h. Following the kinase reaction, a 20 μL aliquot of Kinase Glo (Promega) was added and luminescence signal was measured using a Victor2 plate reader (Perkin-Elmer). Total ATP consumption was limited to 50%.

EphB4 = molecular target: T2, EphB4 (Homo sapiens, UniProt P54760); assay: Mechanism of action study / Ki determination; format: biochemical
T2 construct: residues E605-E890 of human EphB4 containing a six histidine NH2-terminal tag; His6 (N); made in house; host or cells: baculovirus expression system
T2 sequence (P54760 605-890): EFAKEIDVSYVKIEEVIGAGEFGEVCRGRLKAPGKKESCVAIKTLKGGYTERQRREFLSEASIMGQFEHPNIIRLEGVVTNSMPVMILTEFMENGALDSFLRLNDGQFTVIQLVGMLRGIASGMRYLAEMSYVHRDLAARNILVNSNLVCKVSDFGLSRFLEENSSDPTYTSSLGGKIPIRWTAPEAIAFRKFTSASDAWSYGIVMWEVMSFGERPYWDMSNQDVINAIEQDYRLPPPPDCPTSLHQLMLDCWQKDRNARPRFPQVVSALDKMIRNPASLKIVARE
Procedure: Enzymatic activity was measured by standard methods after dilution of the enzyme-inhibitor complex. Activity was compared to a DMSO control treated under identical conditions.

Adenosine, Non-selective = assay: NovaScreen assay; format: binding
[1] = test system: Adrenergic, Alpha 1, Non-selective; assay: NovaScreen assay; format: binding
Histamine, H1 = molecular target: T3, Histamine, H1 (Homo sapiens, UniProt P35367); assay: NovaScreen assay; format: binding; details: read-out: Inhibition, 10 μM XL-647
T3 construct: NovaScreen
T3 sequence (P35367 whole entry): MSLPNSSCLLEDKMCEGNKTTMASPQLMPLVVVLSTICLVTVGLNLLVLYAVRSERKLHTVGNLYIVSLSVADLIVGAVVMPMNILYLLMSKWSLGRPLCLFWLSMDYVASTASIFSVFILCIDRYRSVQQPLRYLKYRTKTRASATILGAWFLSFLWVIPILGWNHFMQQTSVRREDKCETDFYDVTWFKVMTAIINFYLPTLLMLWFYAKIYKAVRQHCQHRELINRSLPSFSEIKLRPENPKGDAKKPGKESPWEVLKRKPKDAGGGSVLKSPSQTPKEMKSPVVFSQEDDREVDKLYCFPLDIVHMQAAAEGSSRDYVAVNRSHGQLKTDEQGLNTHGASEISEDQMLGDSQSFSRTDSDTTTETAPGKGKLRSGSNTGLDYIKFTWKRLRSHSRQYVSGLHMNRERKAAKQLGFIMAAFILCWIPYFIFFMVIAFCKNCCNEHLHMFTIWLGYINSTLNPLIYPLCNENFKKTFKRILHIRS

Melatonin, Non-selective = assay: NovaScreen assay; format: binding
[2] = molecular target: T4, Muscarinic, M2 (Human Recombinant) (Homo sapiens, UniProt P08172); assay: NovaScreen assay; format: binding
T4 construct: NovaScreen
T4 sequence (P08172 whole entry): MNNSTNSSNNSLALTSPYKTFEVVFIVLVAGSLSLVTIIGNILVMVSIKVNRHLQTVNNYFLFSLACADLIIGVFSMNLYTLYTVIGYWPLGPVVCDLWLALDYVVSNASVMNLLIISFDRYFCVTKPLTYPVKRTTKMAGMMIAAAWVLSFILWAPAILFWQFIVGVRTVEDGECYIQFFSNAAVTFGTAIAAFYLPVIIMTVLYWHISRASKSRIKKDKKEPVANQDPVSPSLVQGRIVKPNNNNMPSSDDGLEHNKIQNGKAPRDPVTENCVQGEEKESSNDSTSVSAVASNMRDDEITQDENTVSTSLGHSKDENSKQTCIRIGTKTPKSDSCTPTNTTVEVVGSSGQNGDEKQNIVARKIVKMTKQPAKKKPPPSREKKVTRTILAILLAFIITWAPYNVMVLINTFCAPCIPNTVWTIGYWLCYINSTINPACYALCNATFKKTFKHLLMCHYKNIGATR

[3] = molecular target: T5, Norepinephrine Transporter (Homo sapiens, UniProt P23975); assay: NovaScreen assay; format: binding; details: read-out: Inhibition, 10 μM XL-647
T5 construct: NovaScreen

Leukotriene B4, LTB4 = molecular target: T6, Leukotriene B4, LTB4 (Homo sapiens, UniProt Q15722); assay: NovaScreen assay; format: binding; details: read-out: Inhibition, 10 μM XL-647
T6 construct: NovaScreen
T6 sequence (Q15722 whole entry): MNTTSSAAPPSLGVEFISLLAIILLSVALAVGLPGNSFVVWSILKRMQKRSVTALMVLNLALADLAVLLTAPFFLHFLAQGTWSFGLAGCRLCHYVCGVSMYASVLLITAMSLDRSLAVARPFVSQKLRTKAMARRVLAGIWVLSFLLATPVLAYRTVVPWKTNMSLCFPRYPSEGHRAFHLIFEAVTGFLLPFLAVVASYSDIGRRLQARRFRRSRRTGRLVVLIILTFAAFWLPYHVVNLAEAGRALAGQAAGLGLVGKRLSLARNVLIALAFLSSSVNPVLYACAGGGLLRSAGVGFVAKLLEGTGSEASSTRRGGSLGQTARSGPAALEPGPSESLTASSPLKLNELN

Thromboxane A2 (Human) = molecular target: T7, Thromboxane A2 (Human) (Homo sapiens, UniProt P21731); assay: NovaScreen assay; format: binding; details: read-out: Inhibition, 10 μM XL-647
T7 construct: NovaScreen
T7 sequence (P21731 whole entry): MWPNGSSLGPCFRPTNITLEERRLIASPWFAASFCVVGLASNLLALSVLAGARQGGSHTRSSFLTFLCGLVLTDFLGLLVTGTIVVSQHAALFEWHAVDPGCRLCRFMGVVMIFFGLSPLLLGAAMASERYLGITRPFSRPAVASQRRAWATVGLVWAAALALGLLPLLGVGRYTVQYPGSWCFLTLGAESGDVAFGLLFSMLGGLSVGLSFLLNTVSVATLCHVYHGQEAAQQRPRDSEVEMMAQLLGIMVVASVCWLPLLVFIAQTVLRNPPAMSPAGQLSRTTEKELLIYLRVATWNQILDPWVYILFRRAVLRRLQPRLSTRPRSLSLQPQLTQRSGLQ

Angiotensin II, AT2 = molecular target: T8, Angiotensin II, AT2 (Homo sapiens, UniProt P50052); assay: NovaScreen assay; format: binding; details: read-out: Inhibition, 10 μM XL-647
T8 construct: NovaScreen
T8 sequence (P50052 whole entry): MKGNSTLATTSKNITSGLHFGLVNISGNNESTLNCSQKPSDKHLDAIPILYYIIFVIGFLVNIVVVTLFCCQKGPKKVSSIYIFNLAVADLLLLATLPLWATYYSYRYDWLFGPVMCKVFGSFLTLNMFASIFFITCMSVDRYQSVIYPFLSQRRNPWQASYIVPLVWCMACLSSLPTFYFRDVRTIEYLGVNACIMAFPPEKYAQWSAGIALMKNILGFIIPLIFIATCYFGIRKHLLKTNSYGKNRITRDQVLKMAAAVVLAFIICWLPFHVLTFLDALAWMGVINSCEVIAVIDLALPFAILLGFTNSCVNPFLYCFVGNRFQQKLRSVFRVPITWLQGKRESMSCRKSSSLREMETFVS

[4] = test system: Vasoactive Intestinal Peptide, Non-selective; assay: NovaScreen assay; format: binding
[5] = test system: Glutamic Acid Decarboxylase; assay: NovaScreen assay; format: biochemical
[6] = molecular target: T9, Monoamine Oxidase A, Peripheral (Rattus norvegicus, UniProt P21396); assay: NovaScreen assay; format: biochemical; details: read-out: Inhibition, 10 μM XL-647
T9 construct: NovaScreen
T9 sequence (P21396 whole entry): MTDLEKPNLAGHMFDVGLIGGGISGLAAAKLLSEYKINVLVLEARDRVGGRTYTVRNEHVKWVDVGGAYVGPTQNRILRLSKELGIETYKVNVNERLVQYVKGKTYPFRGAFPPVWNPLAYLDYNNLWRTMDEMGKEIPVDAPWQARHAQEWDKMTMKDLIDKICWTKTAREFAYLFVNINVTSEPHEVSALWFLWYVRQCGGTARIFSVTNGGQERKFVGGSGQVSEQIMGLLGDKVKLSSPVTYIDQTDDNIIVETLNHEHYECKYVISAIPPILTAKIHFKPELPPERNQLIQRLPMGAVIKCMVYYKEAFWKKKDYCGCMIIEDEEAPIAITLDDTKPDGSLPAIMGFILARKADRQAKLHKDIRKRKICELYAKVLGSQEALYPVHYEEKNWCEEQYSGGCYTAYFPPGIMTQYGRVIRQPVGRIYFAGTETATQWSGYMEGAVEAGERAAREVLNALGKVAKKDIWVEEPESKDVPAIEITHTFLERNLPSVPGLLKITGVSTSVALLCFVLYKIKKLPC

[7] = test system: panel of 10 tyrosine kinases and 55 serine-threonine kinases; assay: Kinase panel screen; format: biochemical; details: incl. insulin and IGF-1 receptor, CDKs, SAPKs, PKC isoforms
FGFR1 = molecular target: T10, FGFR1 (Homo sapiens, UniProt P11362); assay: AlphaScreen kinase assay; format: biochemical
T10 construct: cytoplasmic; GST-His6 (N); purchased ProQinase
Procedure: (§1) An AlphaScreen tyrosine kinase assay was used to measure ErbB2 and Flt-4 activity. Donor beads coated with streptavidin and acceptor beads coated with PY100 anti-phosphotyrosine antibody (Perkin-Elmer) were used. Biotinylated poly(Glu,Tyr) 4:1 was used as the substrate. Substrate phosphorylation was measured by luminescence following donor-acceptor bead addition followed by complex formation. Test compound, 3 μmol/L ATP, 3 nmol/L biotinylated poly(Glu,Tyr) 4:1, and 1 nmol/L ErbB2 (residues Q679-V1255 of human ErbB2, Proqinase) or Flt-4 (residues D725-R1298 of human Flt-4, Proqinase) were combined in a volume of 20 μL Assay Buffer (20 mM TrisHCl, pH 7.5, 10 mM MgCl2, 3 mM MnCl2, 1 mM DTT, 0.01% Triton) in a 384-well white, medium-binding microtiter plate (Greiner). Reaction mixtures were incubated for 1 h at room temperature. Reactions were quenched by addition of 10 μL of 15 to 30 μg/mL AlphaScreen bead suspension containing 75 mmol/L HEPES (pH 7.4), 300 mmol/L NaCl, 120 mmol/L EDTA, 0.3% bovine serum albumin, and 0.03% Tween 20. After 2 to 16 h of incubation at room temperature, plates were read using an AlphaQuest reader (Perkin-Elmer).
(§2) Further screening was performed using the biochemical assay methods of Example 2. Additional description of the components and concentrations are summarized in Table 8, Table 9, and Table 10, below.

Fyn = molecular target: T11, Fyn (Homo sapiens, UniProt P06241); assay: AlphaScreen kinase assay; format: biochemical
T11 construct: His6 (N); purchased Upstate Biotechnology
T11 sequence (P06241 whole entry): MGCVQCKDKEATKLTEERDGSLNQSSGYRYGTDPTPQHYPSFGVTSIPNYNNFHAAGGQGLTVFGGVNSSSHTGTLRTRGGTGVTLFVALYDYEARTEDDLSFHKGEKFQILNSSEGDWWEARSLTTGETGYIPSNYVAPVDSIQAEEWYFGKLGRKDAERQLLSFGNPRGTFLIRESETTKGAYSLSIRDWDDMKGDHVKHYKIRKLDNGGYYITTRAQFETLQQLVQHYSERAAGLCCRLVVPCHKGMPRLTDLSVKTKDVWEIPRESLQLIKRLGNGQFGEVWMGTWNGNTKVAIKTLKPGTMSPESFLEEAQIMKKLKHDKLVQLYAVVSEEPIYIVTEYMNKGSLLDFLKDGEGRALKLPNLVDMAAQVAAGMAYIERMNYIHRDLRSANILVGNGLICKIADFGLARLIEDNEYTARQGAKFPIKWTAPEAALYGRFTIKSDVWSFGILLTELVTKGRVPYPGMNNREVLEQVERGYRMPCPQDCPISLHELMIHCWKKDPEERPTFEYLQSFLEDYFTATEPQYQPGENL
Procedure: as §1, §2

ErbB2 = ErbB2 (Homo sapiens, UniProt P04626); assay: ErbB2 autophosphorylation ELISA, BT474 cells; format: cell-based; details: read-out: Cellular IC50, autophosphorylation
Sequence of ErbB2 (P04626 23-1255): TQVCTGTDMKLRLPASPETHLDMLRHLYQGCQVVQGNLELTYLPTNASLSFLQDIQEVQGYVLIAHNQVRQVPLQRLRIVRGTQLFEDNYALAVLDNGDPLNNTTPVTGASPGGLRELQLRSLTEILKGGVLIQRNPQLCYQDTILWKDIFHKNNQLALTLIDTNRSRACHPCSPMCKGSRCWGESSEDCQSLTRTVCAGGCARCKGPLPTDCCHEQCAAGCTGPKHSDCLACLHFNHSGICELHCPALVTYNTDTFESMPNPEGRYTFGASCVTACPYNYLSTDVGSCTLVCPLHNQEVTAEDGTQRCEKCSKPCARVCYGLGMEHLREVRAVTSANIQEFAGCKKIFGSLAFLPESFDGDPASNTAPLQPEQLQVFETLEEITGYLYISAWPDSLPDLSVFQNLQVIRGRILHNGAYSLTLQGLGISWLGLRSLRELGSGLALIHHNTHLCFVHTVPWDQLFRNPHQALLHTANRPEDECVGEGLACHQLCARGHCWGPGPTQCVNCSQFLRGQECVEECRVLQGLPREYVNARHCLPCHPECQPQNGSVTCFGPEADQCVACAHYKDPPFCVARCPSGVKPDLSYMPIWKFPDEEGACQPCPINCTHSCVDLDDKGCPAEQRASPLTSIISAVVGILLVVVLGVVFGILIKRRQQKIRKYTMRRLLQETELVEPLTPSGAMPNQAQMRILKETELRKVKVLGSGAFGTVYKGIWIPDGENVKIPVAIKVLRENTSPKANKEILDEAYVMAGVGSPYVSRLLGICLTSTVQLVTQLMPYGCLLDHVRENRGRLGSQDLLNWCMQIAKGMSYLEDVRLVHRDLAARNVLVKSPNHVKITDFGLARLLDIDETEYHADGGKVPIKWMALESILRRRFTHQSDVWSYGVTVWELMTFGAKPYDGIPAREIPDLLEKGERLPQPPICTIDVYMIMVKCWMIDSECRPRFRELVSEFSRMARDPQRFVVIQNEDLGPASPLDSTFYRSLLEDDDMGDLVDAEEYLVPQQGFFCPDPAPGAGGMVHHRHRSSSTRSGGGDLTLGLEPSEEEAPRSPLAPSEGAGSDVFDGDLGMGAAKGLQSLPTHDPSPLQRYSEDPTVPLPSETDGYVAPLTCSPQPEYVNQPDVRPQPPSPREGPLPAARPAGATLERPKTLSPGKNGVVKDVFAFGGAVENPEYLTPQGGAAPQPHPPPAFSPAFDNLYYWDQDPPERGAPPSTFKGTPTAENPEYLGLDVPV
Procedure: The ErbB2 autophosphorylation ELISA utilized BT474 (ATCC) cells. Cells were seeded at 3×10^4 cells/well into 96-well microtiter plates (Costar 3904), in 1:1(DMEM:F12K) (Cellgro) containing 10% FBS (Heat-Inactivated, Hyclone), 1% penicillin-streptomycin (Cellgro), 1% NEAA solution (Cellgro), and 2% L-Glutamine (Cellgro). The cells were then incubated at 37° C., 5% CO2 for 40 hr. […] Following treatment, media was removed, the cell monolayer was washed with cold PBS and immediately lysed with cold lysis buffer. Lysates were centrifuged and transferred into blocked (1% BSA) 96-well high-binding plates (Costar 3925) coated with rabbit polyclonal anti-ErbB2 (1.3 μg/ml, Cell Signaling Technology). Plates were then incubated with HRP-conjugated, anti-phosphotyrosine cocktail (1:10,000, Zymed Laboratories, Inc), followed by the addition of a luminol-based substrate solution. Plates were read with a Victor spectrophotometer (Wallac). IC50 values were determined based on total ErbB2 tyrosine phosphorylation with compound treatment versus total ErbB2 tyrosine phosphorylation with no compound treatment.

total HER2/ErbB2 = molecular target: T12, total HER2/ErbB2 (Homo sapiens, UniProt P04626); assay: In vivo receptor level, BT474 xenografts; parameters: species or system mouse
T12 construct: endogenous in cells; host or cells: BT474 tumour xenografts in mice (per the earlier reading)

in vitro = in vitro ADME, mouse and human; details: rat, mouse, human, plasma
clinical = details: human, in vivo
EGFR L861Q (pCMV/Lx-1) = EGFR L861Q (pCMV/Lx-1) (Homo sapiens, UniProt P00533, L861Q); assay: EGFR phosphorylation ELISA in transfected Lx-1 cells
Text: Lx-1 cells were used because they lack background EGFR activity. A clone corresponding to the longest EGFR isoform (Genbank accession no. NM_005228.3/NP_005219.2 #21-176, Upstate Biotechnology) was used as a template to produce two mutant EGFR genes (coding for L858R and L861Q) by site-directed mutagenesis. The WT and the two sequence-verified mutants were transferred to a COOH-terminal Flag-tagged retroviral cytomegalovirus promoter-driven mammalian expression vector. The two Tet-On expression vectors, EGFR WT (Tet-On) and EGFRvIII (Tet-On), which were COOH-terminally Flag tagged, were generously provided by Dr. Abhijit Guha (University of Toronto, Toronto, Ontario, Canada).
Transient transfections of Lx-1 cells were done using Lipofectamine 2000 (Invitrogen) according to the manufacturer's protocol. For transfections of the WT, L858R, and L861Q constructs, 1 μg plasmid DNA was used for each transfection (each well of a 12-well plate). […]
For the EGFR phosphorylation ELISA, Reacti-Bind streptavidin-coated plates (Pierce) were coated with 2 μg/mL biotin-conjugated anti-Flag antibody (Sigma). […] Horseradish peroxidase activity was determined by reading the plates in a Victor2 plate reader following addition of the ELISA Femto substrate.

T1 sequence (P00533 672-1210): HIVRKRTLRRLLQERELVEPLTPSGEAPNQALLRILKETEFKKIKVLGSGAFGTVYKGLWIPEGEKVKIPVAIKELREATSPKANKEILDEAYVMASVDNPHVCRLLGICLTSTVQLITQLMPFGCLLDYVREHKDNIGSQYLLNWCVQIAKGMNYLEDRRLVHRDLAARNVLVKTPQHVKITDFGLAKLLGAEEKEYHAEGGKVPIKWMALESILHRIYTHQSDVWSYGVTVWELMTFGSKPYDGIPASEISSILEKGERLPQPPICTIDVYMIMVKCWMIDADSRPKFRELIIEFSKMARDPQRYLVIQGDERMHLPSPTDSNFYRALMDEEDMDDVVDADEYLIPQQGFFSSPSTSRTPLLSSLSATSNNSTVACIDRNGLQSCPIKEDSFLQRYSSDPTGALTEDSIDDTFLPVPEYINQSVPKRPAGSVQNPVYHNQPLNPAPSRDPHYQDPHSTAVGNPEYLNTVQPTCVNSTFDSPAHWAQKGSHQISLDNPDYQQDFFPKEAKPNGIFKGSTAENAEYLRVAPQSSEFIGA

With COc1cc2c(Nc3ccc(Cl)c(Cl)c3F)ncnc2cc1OC[C@@H]1C[C@@H]2CN(C)C[C@@H]2C1 [XL-647, N-(3,4-dichloro-2-fluorophenyl)-7-({[(3aR,5r,6aS)-2-methyloctahydrocyclopenta[c]pyrrol-5-yl]methyl}oxy)-6-(methyloxy)quinazolin-4-amine] the BUN (BALB/C mice; 7.5 mg/kg/day) was 19.00 mg/dL, the CT-CI (BALB/C mice; 7.5 mg/kg/day) was 0 and the Creatinine (BALB/C mice; 7.5 mg/kg/day) was 0.24 mg/dL. The MUCA (BALB/C mice; 7.5 mg/kg/day) was 1029 mOsmol, the BUN (BALB/C mice; 15 mg/kg/day) was 19.29 mg/dL and the CT-CI (BALB/C mice; 15 mg/kg/day) was 0. It also gave a Creatinine (BALB/C mice; 15 mg/kg/day) of 0.29 mg/dL, an MUCA (BALB/C mice; 15 mg/kg/day) of 1029 mOsmol and an IC50 (EGFR) of 0.3 ± 0.1 nM. For the same compound, the ATP-Competitive (EphB4) was “Yes”, the Ki (EphB4) was 1 nM and the Reversible (EphB4) was “Yes”. For the same compound, the “Inhibition, 10 μM XL-647” value (Adenosine, Non-selective) was 47.89%, the “Inhibition, 10 μM XL-647” value [1] was 49.40% and the inhibition at 10 µM (Histamine, H1) was 59.8%. The “Inhibition, 10 μM XL-647” value (Melatonin, Non-selective) was 0.18%, the IC50 [2] was 1180 nM and the inhibition at 10 µM ([2]; read-out: Inhibition, 10 μM XL-647) was 98.7%. The inhibition at 10 µM [3] was -5.38%, the inhibition at 10 µM (Leukotriene B4, LTB4) was 32.2% and the inhibition at 10 µM (Thromboxane A2 (Human)) was 1.51%. The inhibition at 10 µM (Angiotensin II, AT2) was 16.6%, the “Inhibition, 10 μM XL-647” value [4] was 17.02% and the “Inhibition, 10 μM XL-647” value [5] was −8.46%. The inhibition at 10 µM [6] was 1.66%, the “activity against kinase panel, in words” value [7] was “inactive” and the IC50 (FGFR1) was 855 ± 96.3 nM. For the same compound, the IC50 (Fyn) was 41 ± 8.1 nM, the IC50 (ErbB2) was 552 nM and the “Single Dose Duration of Action (100 mg/kg, >50% inhibition)” value (total HER2/ErbB2) was greater than 96 h. It also gave a fraction unbound (in vitro) of 0.04 to 0.09, a half-life (clinical) of roughly 60 h and a Tmax (clinical; po) of roughly 4 h. It also gave an IC50 (EGFR L861Q (pCMV/Lx-1)) of 10 nM.

From patent publication US9364479B2, “Use of a receptor-type kinase modulator for treating polycystic kidney disease” (SYMPHONY EVOLUTION, INC., priority 2010, dated 2016)
